{"source": "patent US20200360386A1", "about": "“Inhibitors of HSP90, PI3-Kinase, Proteasome, HDAC, and P97 Pathways for Selective Removal of Senescent Cells in the Treatment of Age Related Conditions” (Unity Biotechnology, Inc., priority 2017, published 2020)", "type_in_all_cases": "in vivo, mouse", "key": {"[1]": {"test_system": "C57BL/6J mice, osteoarthritis induced by ACL surgery", "assay": "Osteoarthritis model: anterior cruciate ligament surgery, intra-articular treatment", "experimental": "The model was implemented as follows. C57BL/6J mice underwent surgery to cut the anterior cruciate ligament of one rear limb to induce osteoarthritis in the joint of that limb. During week 3 and week 4 post-surgery, the mice were treated with 5.8 μg of Nutlin-3A (n=7) per operated knee by intra-articular injection, q.o.d. for 2 weeks. At the end of 4 weeks post-surgery, joints of the mice were monitored for presence of senescent cells, assessed for function, monitored for markers of inflammation, and underwent histological assessment.\nTwo control groups of mice were included in the studies performed: one group comprising C57BL/6J or 3MR mice that had undergone a sham surgery (n=3) (i.e., surgical procedures followed except for cutting the ACL) and intra-articular injections of vehicle parallel to the GCV (gancyclovir) treated group; and one group comprising C57BL/6J or 3MR mice that had undergone an ACL surgery and received intra-articular injections of vehicle (n=5) parallel to the GCV-treated group. RNA from the operated joints of mice from the Nutlin-3A treated mice was analyzed for expression of SASP factors (mmp3, IL-6) and senescence markers (p16). qRT-PCR was performed to detect mRNA levels.\nFunction of the limbs was assessed 4 weeks post-surgery by a weight bearing test to determine which leg the mice favored. The mice were allowed to acclimate to the chamber on at least three occasions prior to taking measurements. Mice were maneuvered inside the chamber to stand with one hind paw on each scale. The weight that was placed on each hind limb was measured over a three second period. At least three separate measurements were made for each animal at each time point. The results were expressed as the percentage of the weight placed on the operated limb versus the contralateral unoperated limb."}, "[2]": {"test_system": "3MR or INK-ATTAC mice exposed to cigarette smoke", "assay": "Cigarette smoke induced COPD model, oxygen saturation by pulse oximeter", "conditions": "after two months of cigarette smoke exposure, compared with untreated controls; FIG. 6", "experimental": "As a model for chronic obstructive pulmonary disease (COPD), mice were exposed to cigarette smoke. The effect of a senolytic agent on the mice exposed to smoke is assessed by senescent cell clearance, lung function, and histopathology.\nThe mice used in this study include the 3MR strain, described in US 2017/0027139 A1 and in Demaria et al., Dev Cell. 2014 Dec. 22; 31 (6): 722-733. The 3MR mouse has a transgene encoding thymidine kinase that converts the prodrug gancyclovir (GCV) to a compound that is lethal to cells. The enzyme in the transgene is placed under control of the p16 promoter, which causes it to be specifically expressed in senescent cells. Treatment of the mice with GCV eliminates senescent cells.\nOther mice used in this study include the INK-ATTAC strain, described in US 2015/0296755 A1 and in Baker et al., Nature 2011 Nov. 2; 479 (7372):232-236. The INK-ATTAC mouse has a transgene encoding switchable caspase 8 under control of the p16 promoter. The caspase 8 can be activated by treating the mice with the switch compound AP20187, whereupon the caspase 8 directly induces apoptosis in senescent cells, eliminating them from the mouse.\nTo conduct the experiment, six-week-old 3MR (n=35) or INK-ATTAC (n=35) mice were chronically exposed to cigarette smoke generated from a Teague TE-10 system, an automatically-controlled cigarette smoking machine that produces a combination of side-stream and mainstream cigarette smoke in a chamber, which is transported to a collecting and mixing chamber where varying amounts of air is mixed with the smoke mixture. The COPD protocol was adapted from the COPD core facility at Johns Hopkins University (Rangasamy et al., 2004, J. Clin. Invest. 114:1248-1259; Yao et al., 2012, J. Clin. Invest. 122:2032-2045).\nMice received a total of 6 hours of cigarette smoke exposure per day, 5 days a week for 6 months. Each lighted cigarette (3R4F research cigarettes containing 10.9 mg of total particulate matter (TPM), 9.4 mg of tar, and 0.726 mg of nicotine, and 11.9 mg carbon monoxide per cigarette [University of Kentucky, Lexington, Ky.]) was puffed for 2 seconds and once every minute for a total of 8 puffs, with the flow rate of 1.05 L/min, to provide a standard puff of 35 cm^3. […] The smoke chamber atmosphere was monitored for total suspended particulates (80-120 mg/m3) and carbon monoxide (350 ppm). […]\nAfter two months of cigarette smoke (CS) exposure, lung function was assessed by monitoring oxygen saturation using the MouseSTAT PhysioSuite™ pulse oximeter (Kent Scientific). […] Mice were monitored for 30 seconds and the average peripheral capillary oxygen saturation (SpO2) measurement over this duration was calculated."}, "[3]": {"test_system": "LDLR-/- mice fed a high fat diet", "assay": "Atherosclerosis model: LDLR-/- mice on high fat diet, systemic treatment", "experimental": "This example illustrates the testing of an MDM2 inhibitor in a mouse model for treatment of atherosclerosis. The test compounds are administered systemically rather than locally. The model is done in an LDLR−/− strain of mice, which are deficient in the receptor for low-density lipoprotein. The experiments described here can be adapted mutatis mutandis to test and develop other types of inhibitors for use in clinical therapy.\nTwo groups of LDLR−/− mice (10 weeks) are fed a high fat diet (HFD) (Harlan Teklad TD.88137) having 42% calories from fat, beginning at Week 0 and throughout the study. Two groups of LDLR−/− mice (10 weeks) are fed normal chow (−HFD). From weeks 0-2, one group of HFD mice and −HFD mice are treated with Nutlin-3A (25 mg/kg, intraperitoneally). One treatment cycle is 14 days treatment, 14 days off. Vehicle is administered to one group of HFD mice and one group of −HFD mice. At week 4 (timepoint 1), one group of mice are sacrificed and to assess presence of senescent cells in the plaques. For the some of the remaining mice, Nutlin-3A and vehicle administration is repeated from weeks 4-6. At week 8 (timepoint 2), the mice are sacrificed and to assess presence of senescent cells in the plaques. The remaining mice are treated with Nutlin-3A or vehicle from weeks 8-10. At week 12 (timepoint 3), the mice are sacrificed and to assess the level of plaque and the number of senescent cells in the plaques.\nPlasma lipid levels were measured in LDLR−/− mice fed a HFD and treated with Nutlin-3A or vehicle at timepoint 1 as compared with mice fed a −HFD (n=3 per group). Plasma was collected mid-afternoon and analyzed for circulating lipids and lipoproteins.\nAt the end of timepoint 1, LDLR−/− mice fed a HFD and treated with Nutlin-3A or vehicle were sacrificed (n=3, all groups), and the aortic arches were dissected for RT-PCR analysis of SASP factors and senescent cell markers. Values were normalized to GAPDH and expressed as fold-change versus age-matched, vehicle-treated LDLR−/− mice on a normal diet.\nAt the end of timepoint 2, LDLR−/− mice fed a HFD and treated with Nutlin-3A or vehicle (n=3 for all groups) were sacrificed, and aortic arches were dissected for RT-PCR analysis of SASP factors and senescent cell markers. Values were normalized to GAPDH and expressed as fold-change versus age-matched, vehicle-treated LDLR−/− mice on a normal diet.\nAt the end of timepoint 3, LDLR−/− mice fed a HFD and treated with Nutlin-3A or vehicle (n=3 for all groups) were sacrificed, and aortas were dissected and stained with Sudan IV to detect the presence of lipid. Body composition of the mice was analyzed by MRI, and circulating blood cells were counted by Hemavet™."}}, "data": [{"smiles": "COc1ccc(C2=N[C@@H](c3ccc(Cl)cc3)[C@@H](c3ccc(Cl)cc3)N2C(=O)N2CCNC(=O)C2)c(OC(C)C)c1", "note": "[Nutlin-3A]", "values": [{"measurement": "expression of p16 in the joint tissue (qRT-PCR)", "setting": "[1]; 5.8 μg per operated knee intra-articular q.o.d. for 2 weeks, 4 weeks post-surgery, FIG. 3A", "value": "reduced the expression back to below the level of the controls"}, {"measurement": "expression of IL-6 in the joint tissue (qRT-PCR)", "setting": "[1]; 5.8 μg per operated knee intra-articular q.o.d. for 2 weeks, 4 weeks post-surgery, FIG. 3B", "value": "reduced the expression back to below the level of the controls"}, {"measurement": "expression of MMP13 in the joint tissue (qRT-PCR)", "setting": "[1]; 5.8 μg per operated knee intra-articular q.o.d. for 2 weeks, 4 weeks post-surgery, FIG. 3C", "value": "reduced the expression back to below the level of the controls"}, {"measurement": "weight bearing test: favoring of the unoperated hind limb over the operated hind limb", "setting": "[1]; 4 weeks post-surgery, FIG. 4A", "value": "abrogated this effect"}, {"measurement": "histopathology: destruction of the proteoglycan layer of the joint", "setting": "[1]; FIGS. 4B-4D", "value": "completely abrogated this effect"}, {"measurement": "SpO2 levels (peripheral capillary oxygen saturation)", "setting": "[2]", "value": "statistically significant increases"}, {"measurement": "expression of SASP factors and senescent cell markers in aortic arch (RT-PCR): MMP3, MMP13, PAI1, p21, IGFBP2, IL-1A, IL-1B", "setting": "[3]; 25 mg/kg intraperitoneally, timepoint 1 (week 4), after one treatment cycle", "value": "reduced expression of several SASP factors and senescent cell markers"}, {"measurement": "expression of SASP factors and senescent cell markers in aortic arch (RT-PCR)", "setting": "[3]; 25 mg/kg intraperitoneally, timepoint 2 (week 8), multiple treatment cycles", "value": "reduced expression of most markers"}, {"measurement": "reduction of surface area covered by plaques in the descending aorta", "setting": "[3]; 25 mg/kg intraperitoneally, timepoint 3 (week 12), Sudan IV staining, FIG. 7", "value": "about 45%"}, {"measurement": "platelet and lymphocyte counts versus vehicle treated mice", "setting": "[3]; timepoint 3 (week 12), Hemavet", "value": "equivalent"}, {"measurement": "mass and body fat composition", "setting": "[3]; timepoint 3 (week 12), MRI, mice fed the high fat diet", "value": "decreased mass and body fat composition"}]}, {"smiles": "CC1(C)CCC(c2ccc(Cl)cc2)=C(CN2CCN(c3ccc(C(=O)NS(=O)(=O)c4ccc(N[C@H](CCN5CCOCC5)CSc5ccccc5)c(S(=O)(=O)C(F)(F)F)c4)cc3)CC2)C1", "note": "[ABT-263, Navitoclax]", "values": [{"measurement": "SpO2 levels (peripheral capillary oxygen saturation)", "setting": "[2]", "value": "statistically significant increases"}]}, {"smiles": "Nc1nc(O)c2ncn(COC(CO)CO)c2n1", "note": "[ganciclovir]", "values": [{"measurement": "SpO2 levels (peripheral capillary oxygen saturation)", "setting": "[2]", "value": "statistically significant increases"}]}, {"smiles": "CC[C@H](C(=O)N1CCCC[C@H]1C(=O)O[C@H](CCc1ccc(OC)c(OC)c1)c1cccc(OCC(=O)NCC(CNC(=O)COc2cccc([C@@H](CCc3ccc(OC)c(OC)c3)OC(=O)[C@@H]3CCCCN3C(=O)[C@@H](CC)c3cc(OC)c(OC)c(OC)c3)c2)CN(C)C)c1)c1cc(OC)c(OC)c(OC)c1", "note": "[AP2018]", "values": [{"measurement": "SpO2 levels (peripheral capillary oxygen saturation)", "setting": "[2]", "value": "statistically significant increases"}]}]}
